Assay results taken from patent US9586963B2 (GENFIT, priority 2011, dated 2017).
Counter-ions that a name gives are not always drawn.

Molecular target: T1, Rev-Erb alpha (Homo sapiens, UniProt P20393)
T1 sequence (P20393 284-614 limits assumed): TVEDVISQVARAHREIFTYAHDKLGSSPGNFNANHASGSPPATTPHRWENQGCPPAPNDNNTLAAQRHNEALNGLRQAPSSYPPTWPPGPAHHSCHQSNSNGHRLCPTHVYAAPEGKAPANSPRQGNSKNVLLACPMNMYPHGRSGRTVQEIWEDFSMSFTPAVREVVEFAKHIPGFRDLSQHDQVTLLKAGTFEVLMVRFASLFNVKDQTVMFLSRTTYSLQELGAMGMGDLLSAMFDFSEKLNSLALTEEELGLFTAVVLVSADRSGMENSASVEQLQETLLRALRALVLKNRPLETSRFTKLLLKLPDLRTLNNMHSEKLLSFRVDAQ
Assay: M2H (mammalian two-hybrid) cellular activation assay of Rev-Erb alpha
Type: cell-based
Conditions: M2H assay, HEK293 cells; for EC50: Gal4-Rev-Erb alpha / VP16-NCoR, luciferase reporter; for Emax: relative to DMSO, at the tested dose, read-out: TOP activation
Experimental: In this system, Rev-Erb alpha or Rev-Erb beta is expressed as a fusion to the Gal4 DNA-binding domain and the cofactor NCoR is expressed as a fusion to the activation domain of the Herpes Simplex Virus tegument protein VP16. These fusion proteins were included in plasmids at a concentration of 1 μg/μL. The pBS-SK+ vector was added to the preparation to adjust the DNA quantity to a fixed value for each condition.
The transfection mix (Jet-PEI protocol, Polyplus transfection) comprised: • 3 mL of Jet PEI Mix (180 μL Jet-Pei and NaCl at 150 mM) and • 3 mL of the DNA Mix or of the DNA Mix control (wherein the Gal4-Rev-Erb alpha plasmid was replaced by a pGal4phi plasmid).
DNA Mix comprised 1.2 mL of DNA and 1.8 mL of NaCl at 150 mM with, in a T225 flask: • 90 ng of Gal4-Rev-Erb alpha, or 90 ng of Gal4-Rev-Erb beta, • 4500 ng of VP16-NCoR, • 27000 ng of Gal4-RE and • 13410 ng of pBS-SK+. Cells
HEK293 cells were cultured in DMEM (Invitrogen 41965) comprising 10% FBS, P/S, 1% glutamine, 1% pyruvate (Invitrogen 11360) and 1% amino acids (Invitrogen 11140). Cells were then batch co-transfected with plasmid vectors (described in the table above) using as Jet-PEI as reagent (Polyplus) following the protocol specified below.
The 6 mL-transfection mix was transferred in a T225 flask. HEK293 cells were then added at a concentration of 12 Millions of cells for 54 mL of medium (DMEM comprising 10% FBS and 1% P/S). Cells incubated over-night at 37° C. and under 5% CO2.
This cell-based assay is performed using 384-well Greiner white plates (Reference 781080). After the incubation, cells were rinsed with PBS, trypsinized, centrifuged and resuspended in free-serum DMEM without phenol red (Invitrogen 31053). Cells were counted and adjusted to 0.5 Million per mL and plated at a concentration of 10,000 cells in 20 μL per well. They were incubated a minimum of 4 hours at 37° C. under 5% CO2. Cells were treated with 20 μL of the compound to analyze (concentration of 2× diluted in DMEM without FBS containing a maximum of 1% DMSO) and incubated over-night (18 hours, 37° C. and 5% CO2). Each compound has been tested at 6 different concentrations to depict a dose-effect allowing the measure of biochemical parameters such as EC50 and TOP activation (%).
Cells were incubated 30 minutes with 40 μL/well of Steady Glow (Promega) and luminescence was read with TECAN Genios Pro (100 ms/w). Four experiments were carried out for each compound.
Each compound has been tested at 6 different concentrations to depict a dose-effect allowing the measure of biochemical parameters such as EC50 and TOP activation (%).
The mammalian two-hybrid system (M2H) assay consists herein in studying the ability of compounds according to the invention to activate Rev-Erbalpha in cells and thus modulate the interaction with its corepressor. The interaction of the two proteins is assessed with the help of the Luciferase reporter gene. HEK293 cells were transfected with two gene constructions: Gal4-RE VP16-NCoR and Gal4-Rev-Erbalpha or with Gal4-RE, sVP16-NCoR and Gal4-Rev-Erb beta.
The ability of compounds according to the invention of activating Rev-Erbalpha alpha or Rev-Erb beta was assessed in the described cell-based assay. EC50 and TOP activation (%) were measured.

Row | Structure (SMILES) | EC50 [µM] | Emax [%]
1 | Fc1cc(Oc2ccc3nnc(C(F)(F)F)n3n2)c(-c2ccccc2)cc1F [Cpd.4-61, 3-trifluoromethyl-6-(4,5-difluorobiphenyl-2-yloxy)-[1,2,4]triazolo[4,3-b]pyridazine] | 1 to 6 | 
2 | Clc1nnc2ccc(Oc3ccc(CN4CCOCC4)cc3-c3ccccc3)nn12 [Cpd.4-62, 3-chloro-6-(5-morpholinomethyl-biphenyl-2-yloxy)-[1,2,4]triazolo[4,3-b]pyridazine] | 1 to 6 | 
3 | CN(C)Cc1ccc(Oc2ccc3nnc(Cl)n3n2)c(-c2ccccc2)c1 [Cpd.4-63, 3-chloro-6-(5-N,N-dimethylaminomethyl-biphenyl-2-yloxy)-[1,2,4]triazolo[4,3-b]pyridazine] | > 6 | > 130
4 | NCc1ccc(-c2ccccc2)c(Oc2ccc3nnc(Cl)n3n2)c1 [Cpd.4-65, 3-chloro-6-(4-aminomethyl-biphenyl-2-yloxy)-[1,2,4]triazolo[4,3-b]pyridazine] | > 6 | > 130
5 | OCc1ccc(Oc2ccc3nnc(Cl)n3n2)c(-c2ccccc2)c1 [Cpd.4-66, 3-chloro-6-(5-hydroxymethyl-biphenyl-2-yloxy)-[1,2,4]triazolo[4,3-b]pyridazine] | 1 to 6 | 
6 | COC(=O)c1ccc(Oc2ccc3nnc(Cl)n3n2)c(-c2ccccc2)c1 [Cpd.4-69, 3-chloro-6-(5-methyloxycarbonyl-biphenyl-2-yloxy)-[1,2,4]triazolo[4,3-b]pyridazine] | 0.1 to 1 | 
7 | COc1cccc(-c2ccc(C(F)(F)F)cc2Oc2ccc3nnc(Cl)n3n2)c1 [Cpd.4-71, 3-chloro-6-(3′-methoxy-4-trifluoromethyl-biphenyl-2-yloxy)-[1,2,4]triazolo[4,3-b]pyridazine] | 0.1 to 1 | 
8 | NC(=O)c1cccc(-c2ccc(C(F)(F)F)cc2Oc2ccc3nnc(Cl)n3n2)c1 [Cpd.4-72, 3-chloro-6-(4-trifluoromethyl-3′-aminocarbonyl-biphenyl-2-yloxy)-[1,2,4]triazolo[4,3-b]pyridazine] | 1 to 6 | 
9 | COC(=O)c1cccc(-c2cc(F)ccc2Oc2ccc3nnc(Cl)n3n2)c1 [Cpd.4-75] | 1 to 6 | 
10 | COc1cccc(-c2cc(F)ccc2Oc2ccc3nnc(Cl)n3n2)c1 [Cpd.4-76, 3-chloro-6-(5-fluoro-3′ methoxy-biphenyl-2-yloxy)-[1,2,4]triazolo[4,3-b]pyridazine] | 0.1 to 1 | 
11 | Fc1ncccc1-c1ccc(C(F)(F)F)cc1Oc1ccc2nnc(Cl)n2n1 [Cpd.4-78, 3-chloro-6-(2-(2-fluoropyridin-3-yl)-5-(trifluoromethyl)phenoxy)-[1,2,4]triazolo[4,3-b]pyridazine] | 0.1 to 1 | 
12 | FC(F)(F)c1ccc(-c2ccncc2)c(Oc2ccc3nnc(Cl)n3n2)c1 [Cpd.4-79, 3-chloro-6-(2-(pyridin-4-yl)-5-(trifluoromethyl)phenoxy)-[1,2,4]triazolo[4,3-b]pyridazine hydrochloride] | 1 to 6 | 
13 | COc1ncccc1-c1ccc(C(F)(F)F)cc1Oc1ccc2nnc(Cl)n2n1 [Cpd.4-80, 3-chloro-6-(2-(2-methoxypyridin-3-yl)-5-(trifluoromethyl)phenoxy)-[1,2,4]triazolo[4,3-b]pyridazine hydrochloride] | 0.1 to 1 | 
14 | COc1ccc(-c2ccc(C(F)(F)F)cc2Oc2ccc3nnc(Cl)n3n2)cn1 [Cpd.4-81, 3-chloro-6-(2-(6-methoxypyridin-3-yl)-5-(trifluoromethyl)phenoxy)-[1,2,4]triazolo[4,3-b]pyridazine] | 0.1 to 1 | 
15 | COc1cncc(-c2ccc(C(F)(F)F)cc2Oc2ccc3nnc(Cl)n3n2)c1 [Cpd.4-82, 3-chloro-6-(2-(5-methoxypyridin-3-yl)-5-(trifluoromethyl)phenoxy)-[1,2,4]triazolo[4,3-b]pyridazine] | 1 to 6 | 
16 | CCOc1ccc(-c2ccc(C(F)(F)F)cc2Oc2ccc3nnc(Cl)n3n2)cn1 [Cpd.4-84, 3-chloro-6-(2-(6-ethoxypyridin-3-yl)-5-(trifluoromethyl)phenoxy)-[1,2,4]triazolo[4,3-b]pyridazine] | 1 to 6 | 
17 | Cn1cc(-c2ccc(C(F)(F)F)cc2Oc2ccc3nnc(Cl)n3n2)ccc1=O [Cpd.4-86, 5-(2-(3-chloro-[1,2,4]triazolo[4,3-b]pyridazin-6-yloxy)-4-(trifluoromethyl)phenyl)-1-methylpyridin-2(1H)-one] | > 6 | > 130
18 | Fc1ccc(-c2ccc(C(F)(F)F)cc2Oc2ccc3nnc(Cl)n3n2)cn1 [Cpd.4-87, 3-chloro-6-(2-(6-fluoropyridin-3-yl)-5-(trifluoromethyl)phenoxy)-[1,2,4]triazolo[4,3-b]pyridazine] | 1 to 6 | 
19 | CCCn1cc(-c2ccc(C(F)(F)F)cc2Oc2ccc3nnc(Cl)n3n2)ccc1=O [Cpd.4-88, 5-(2-(3-chloro-[1,2,4]triazolo[4,3-b]pyridazin-6-yloxy)-4-(trifluoromethyl)phenyl)-1-propylpyridin-2(1H)-one] | > 6 | > 130
20 | CCCCn1cc(-c2ccc(C(F)(F)F)cc2Oc2ccc3nnc(Cl)n3n2)ccc1=O [Cpd.4-89, 1-butyl-5-(2-(3-chloro-[1,2,4]triazolo[4,3-b]pyridazin-6-yloxy)-4-(trifluoromethyl)phenyl)pyridin-2(1H)-one] | > 6 | > 130
21 | CCCOc1ccc(-c2ccc(C(F)(F)F)cc2Oc2ccc3nnc(Cl)n3n2)cn1 [Cpd.4-92, 3-chloro-6-(2-(6-propoxypyridin-3-yl)-5-(trifluoromethyl)phenoxy)-[1,2,4]triazolo[4,3-b]pyridazine hydrochloride] | > 6 | > 130
22 | Oc1cncc(-c2ccc(C(F)(F)F)cc2Oc2ccc3nnc(Cl)n3n2)c1 [Cpd.4-96, 5-(2-(3-chloro-[1,2,4]triazolo[4,3-b]pyridazin-6-yloxy)-4-(trifluoromethyl)phenyl)pyridin-3-ol] | > 6 | > 130
23 | FC(F)(F)c1ccc(-c2ccccn2)c(Oc2ccc3nnc(Cl)n3n2)c1 [Cpd.4-97, 3-chloro-6-(2-(pyridin-2-yl)-5-(trifluoromethyl)phenoxy)-[1,2,4]triazolo[4,3-b]pyridazine hydrochloride] | 1 to 6 | 
24 | Clc1nnc2ccc(Oc3ccccc3-c3cccnc3)nn12 [Cpd.4-98, 3-chloro-6-(2-(pyridin-3-yl)phenoxy)-[1,2,4]triazolo[4,3-b]pyridazine hydrochloride] | > 6 | > 130
25 | COc1ccncc1-c1ccc(C(F)(F)F)cc1Oc1ccc2nnc(Cl)n2n1 [Cpd.4-100, 3-chloro-6-(2-(4-methoxypyridin-3-yl)-5-(trifluoromethyl)phenoxy)-[1,2,4]triazolo[4,3-b]pyridazine] | 1 to 6 | 
26 | Clc1nnc2ccc(Oc3ccccc3-c3cscn3)nn12 [Cpd.4-103, 3-chloro-6-(2-(thiazol-4-yl)phenoxy)-[1,2,4]triazolo[4,3-b]pyridazine] | > 6 | > 130
27 | Clc1nnc2ccc(Oc3ccccc3-c3nccs3)nn12 [Cpd.4-104, 3-chloro-6-(2-(thiazol-2-yl)phenoxy)-[1,2,4]triazolo[4,3-b]pyridazine] | > 6 | > 130
28 | FC(F)(F)c1ccc(-c2nccs2)c(Oc2ccc3nnc(Cl)n3n2)c1 [Cpd.4-105, 3-chloro-6-(2-(thiazol-2-yl)-5-(trifluoromethyl)phenoxy)-[1,2,4]triazolo[4,3-b]pyridazine] | 1 to 6 | 
